Data reported in patent US20250019350A1, “SYNTHESIS OF THE PROSTATE SPECIFIC MEMBRANE ANTIGEN (PSMA) RADIOLABELED INHIBITOR [18F]DCFPYL” (Progenics Pharmaceuticals, Inc, priority 2023, published 2025).

Test: Radiolysis / stability of [18F]DCFPyL over time by HPLC with radiodetection (RCP, free 18F, radioactive impurities)
Assay type: physicochemical
Settings: for RT 4.8 radioactive impurity: MPA = 0.25% of main peak; for RCP: T = 10 hour; for 18F-DCFPyL / Free 18F: forced radiolysis in ethanol, 364.5 mCi/mL; for RT 5.0 min / RT 5.9 min / RT 12.0 min / RT 12.2 min: radioactive impurity
Protocol: Those of ordinary skill in the art will be aware of techniques and systems for determining the radiochemical purity of a composition. In some cases, the radiochemical purity is determined using an HPLC associated with a radio-detector. Generally, the radiochemical purity is determined under ambient conditions (e.g., ambient temperature, ambient humidity, ambient light, etc.), such as in samples stored under such conditions.
Stability was assessed using reverse phase HPLC on a C18 column with a phosphate buffer/acetonitrile gradient mobile phase, and the elution profile was monitored using both UV and radiochemical detectors. Samples were analyzed either by direct injection onto the HPLC, dilution and injection or including the addition of tetraethylammonium fluoride (TEAF) into the sample before injection.
Known amounts of free ^18F either alone or spiked with TEAF were injected onto the analytic column and the eluent from the column collected over the course of a chromatogram and assaying the radioactivity using a Capintec. […] Adding TEAF into the analytic samples was incorporated into subsequent studies examining potential radiolysis of [^18F]DCFPyL to overcome some of the limitations of free ^18F quantification.
Analytical HPLC method was used. The method employs UV detection at 264 nm for chemical impurities, and an Eckert & Ziegler model B-FC-1000 gamma detector for radiochemical assays.

[1] = T = 6 hr, 5 mg/mL ascorbic acid pH 5.8, 20% ethanol, 99.0 mCi/mL at EOS
[2] = T = 6 hr, 50 mg/mL ascorbic acid pH 5.8, 20% ethanol, 139.7 mCi/mL at EOS
[3] = T = 6 hr, 100% ethanol, 325 mCi/mL at EOS
[4] = T = 7 hr, 100% ethanol, 325 mCi/mL at EOS
[5] = T = 8 hr, 100% ethanol, 325 mCi/mL at EOS
[6] = T = 9 hr, 100% ethanol, 325 mCi/mL at EOS
[7] = T = 10 hr, +TEAF added to sample before HPLC, 100% ethanol, 325 mCi/mL at EOS
[8] = T = 10 hr, 1 mg/mL ascorbic acid pH 5.8, 20% ethanol, 107.0 mCi/mL at EOS
[9] = T = 10 hr, 5 mg/mL ascorbic acid pH 5.8, 20% ethanol, 99.0 mCi/mL at EOS
[10] = T = 10 hr, 50 mg/mL ascorbic acid pH 5.8, 20% ethanol, 139.7 mCi/mL at EOS
[11] = T = 10 h, TEAF added (44 mg/mL) to sharpen the 18F peak
[12] = 147 mCi/mL in 0.9% Sodium Chloride, USP, T = 0 h
[13] = 147 mCi/mL in 0.9% Sodium Chloride, USP, T = 0.5 h
[14] = 147 mCi/mL in 0.9% Sodium Chloride, USP, T = 1.0 h
[15] = 147 mCi/mL in 0.9% Sodium Chloride, USP, T = 1.5 h
[16] = 147 mCi/mL in 0.9% Sodium Chloride, USP, T = 2.0 h
[17] = 147 mCi/mL in 0.9% Sodium Chloride, USP, T = 2.5 h
[18] = 147 mCi/mL in 0.9% Sodium Chloride, USP, T = 3.0 h
[19] = 147 mCi/mL in 0.9% Sodium Chloride, USP, T = 3.5 h
[20] = 147 mCi/mL in 0.9% Sodium Chloride, USP, T = 4.0 h
[21] = 256 mCi/mL in ethanol, T = 1.0 h
[22] = 256 mCi/mL in ethanol, T = 1.5 h
[23] = 256 mCi/mL in ethanol, T = 2.0 h
[24] = 256 mCi/mL in ethanol, T = 2.5 h
[25] = 256 mCi/mL in ethanol, T = 3.0 h
[26] = 256 mCi/mL in ethanol, T = 3.5 h
[27] = 256 mCi/mL in ethanol, T = 4.0 h

SMILES: O=C(O)CC[C@H](NC(=O)N[C@@H](CCCCNC(=O)c1ccc([18F])nc1)C(=O)O)C(=O)O [Lot 18F-DCFPyL, 2-(3-{1-carboxy-5-[(6-[18F]fluoro-pyridine-3-carbonyl)-amino]-pentyl}ureido)-pentanedioic acid]
- Free F-18 (T = 6 hr, 1 mg/mL ascorbic acid pH 5.8, 20% ethanol, 107.0 mCi/mL at EOS): 1.57%
- Free F-18 (T = 6 hr, 1 mg/mL sodium ascorbate, 20% ethanol, 111.5 mCi/mL at EOS): 2.81%
- 18F-DCFPyL (% RCP) [1]: 99.09%
- Free F-18 [1]: 0.91%
- Free F-18 (T = 6 hr, 5 mg/mL sodium ascorbate, 20% ethanol, 114.6 mCi/mL at EOS): 1.45%
- 18F-DCFPyL (% RCP) [2]: 99.64%
- Free F-18 [2]: 0.36%
- RT 4.8 radioactive impurity [2]: <MPA
- 18F-DCFPyL (RCP) [3]: 96.73%
- Free F-18 [3]: 4.27%
- 18F-DCFPyL (RCP) [4]: 96.42%
- Free F-18 [4]: 4.58%
- 18F-DCFPyL (RCP) [5]: 95.76%
- Free F-18 [5]: 4.24%
- 18F-DCFPyL (RCP) [6]: 95.31%
- Free F-18 [6]: 4.69%
- RCP (120 mCi/mL, ascorbic acid 5.6 mg/mL pH 6.0): 96.9%
- RCP (127 mCi/mL, ascorbic acid 2.8 mg/mL pH 6.0): 96.1%
- RCP (166 mCi/mL, ascorbic acid 5.6 mg/mL pH 6.0): 95.5%
- 18F-DCFPyL (RCP) [7]: 92.7%
- Free F-18 [7]: 7.35%
- Free F-18 (T = 10 hr, +TEAF added to sample before HPLC, 100% ethanol, 325 mCi/mL at EOS, listed as 18F DCFPyL): 7.4%
- Free F-18 (T = 10 hr, no TEAF, 100% ethanol, 325 mCi/mL at EOS): 4.55%
- Free F-18 (T = 10 hr, no TEAF, 100% ethanol, 325 mCi/mL at EOS, listed as 18F DCFPyL): 4.6%
- Free F-18 (T = 10 hr, 0.5 mg/mL ascorbic acid pH 5.8, 20% ethanol, 105.8 mCi/mL at EOS): 1.42%
- 18F-DCFPyL (% RCP) [8]: 98.36%
- Free F-18 [8]: 1.64%
- Free F-18 (T = 10 hr, 1 mg/mL sodium ascorbate, 20% ethanol, 111.5 mCi/mL at EOS): 2.74%
- 18F-DCFPyL (% RCP) [9]: 99.05%
- Free F-18 [9]: 0.95%
- Free F-18 (T = 10 hr, 5 mg/mL sodium ascorbate, 20% ethanol, 114.6 mCi/mL at EOS): 1.51%
- 18F-DCFPyL (% RCP) [10]: 99.34%
- Free F-18 [10]: 0.30%
- RT 4.8 radioactive impurity [10]: 0.36%
- 18F-DCFPyL (RCP) (T = 10 hr, 100% ethanol, 325 mCi/mL at EOS): 95.45%
- 18F-DCFPyL (RCP) (T = 10 hr, 100% ethanol, 325 mCi/mL at EOS, listed as 18F DCFPyL): 95.5%
- 18F-DCFPyL (T = 0 h): 98.37 area %
- Free 18F (T = 0 h): 1.63 area %
- 18F-DCFPyL (T = 1 h): 96.66 area %
- Free 18F (T = 1 h): 3.34 area %
- 18F-DCFPyL (T = 2 h): 96.38 area %
- Free 18F (T = 2 h): 3.62 area %
- 18F-DCFPyL (T = 3 h): 95.71 area %
- Free 18F (T = 3 h): 4.29 area %
- 18F-DCFPyL (T = 4 h): 95.60 area %
- Free 18F (T = 4 h): 4.40 area %
- 18F-DCFPyL (T = 5 h): 95.58 area %
- Free 18F (T = 5 h): 4.42 area %
- 18F-DCFPyL (T = 6 h): 95.73 area %
- Free 18F (T = 6 h): 4.27 area %
- 18F-DCFPyL (T = 7 h): 95.42 area %
- Free 18F (T = 7 h): 4.58 area %
- 18F-DCFPyL (T = 8 h): 95.76 area %
- Free 18F (T = 8 h): 4.24 area %
- 18F-DCFPyL (T = 9 h): 95.31 area %
- Free 18F (T = 9 h): 4.69 area %
- 18F-DCFPyL (T = 10 h): 95.45 area %
- Free 18F (T = 10 h): 4.55 area %
- 18F-DCFPyL [11]: 92.65 area %
- Free 18F [11]: 7.35 area %
- two impurities eluting before the 18F-DCFPyL peak, upper end of range (<LLQ to ...) (over 4 hours, 110 mCi/mL lot, 50 mg/mL pH 5.8 ascorbic acid, 24% (w/w) ethanol): ≤ 0.37%
- impurity eluting before the 18F-DCFPyL peak, upper end of range (<LLQ to ...) (over 4 hours, 256 mCi/mL lot, 100 mg/mL pH 2.0 ascorbic acid in collection vial): ≤ 0.35%
- RT 5.0 min (110 mCi/mL in 50 mg/mL pH 5.8 ascorbic acid, T = 0 h): 0.27 area %
- RT 5.0 min (110 mCi/mL in 50 mg/mL pH 5.8 ascorbic acid, T = 0.5 h): 0.28 area %
- RT 5.0 min (110 mCi/mL in 50 mg/mL pH 5.8 ascorbic acid, T = 1.0 h): 0.26 area %
- RT 5.0 min (110 mCi/mL in 50 mg/mL pH 5.8 ascorbic acid, T = 1.5 h): 0.34 area %
- RT 5.0 min (110 mCi/mL in 50 mg/mL pH 5.8 ascorbic acid, T = 2.0 h): 0.24 area %
- RT 5.0 min (110 mCi/mL in 50 mg/mL pH 5.8 ascorbic acid, T = 2.5 h): 0.34 area %
- RT 5.0 min (110 mCi/mL in 50 mg/mL pH 5.8 ascorbic acid, T = 3.0 h): 0.35 area %
- RT 5.0 min (110 mCi/mL in 50 mg/mL pH 5.8 ascorbic acid, T = 3.5 h): 0.31 area %
- RT 5.0 min (110 mCi/mL in 50 mg/mL pH 5.8 ascorbic acid, T = 4.0 h): 0.31 area %
- RT 5.0 min [12]: 0.50 area %
- RT 5.9 min [12]: 0.64 area %
- RT 5.0 min [13]: 0.65 area %
- RT 5.9 min [13]: 0.97 area %
- RT 5.0 min [14]: 0.48 area %
- RT 5.9 min [14]: 1.11 area %
- RT 5.0 min [15]: 0.61 area %
- RT 5.9 min [15]: 1.03 area %
- RT 5.0 min [16]: 0.77 area %
- RT 5.9 min [16]: 1.05 area %
- RT 5.0 min [17]: 0.62 area %
- RT 5.9 min [17]: 0.93 area %
- RT 5.0 min [18]: 0.70 area %
- RT 5.9 min [18]: 0.87 area %
- RT 5.0 min [19]: 0.59 area %
- RT 5.9 min [19]: 0.95 area %
- RT 5.0 min [20]: 0.71 area %
- RT 5.9 min [20]: 0.96 area %
- RT 5.0 min [21]: 0.35 area %
- RT 12.0 min [21]: 0.35 area %
- RT 12.2 min [21]: 0.31 area %
- RT 5.0 min [22]: 0.28 area %
- RT 12.0 min [22]: 0.46 area %
- RT 12.2 min [22]: 0.37 area %
- RT 5.0 min [23]: 0.50 area %
- RT 12.0 min [23]: 0.52 area %
- RT 12.2 min [23]: 0.47 area %
- RT 12.0 min [24]: 0.52 area %
- RT 12.2 min [24]: 0.46 area %
- RT 12.0 min [25]: 0.69 area %
- RT 12.2 min [25]: 0.57 area %
- RT 12.0 min [26]: 0.87 area %
- RT 12.2 min [26]: 0.75 area %
- RT 12.0 min [27]: 0.96 area %
- RT 12.2 min [27]: 0.69 area %
